# According to patent US6017877A, “Method and composition for treating thrombosis” (priority 1994, dated 2000):
# pIC50: −log10 of the molar value. “And” between values parts separate entries of the source, which are not always exact repeats. Equal values may be shown once. Read-outs that look alike come from different tables or passages of the source.
# What was measured:
# [1] = test system: platelets; assay: Platelet aggregation assay of Example XI; assay type: cell-based; details: for reactivity relative to 8X in platelet aggregation: fold more reactive than 8X
# Experimental: (§1) Platelet aggregation was assessed using the method of Born, Nature 194:927-929 (1962), incorporated herein by reference. Briefly, the change in light transmission was measured through a stirred suspension of platelets in an aggregometer (Model 400 VS, Chrono-Log, Havertown, Pa., USA). […] In studies using thrombin, the PRP was gel-filtered on Sepharose 2B in divalent ion-free Tyrode's solution containing 2% BSA. For all studies, the reference standard was platelet-poor plasma, which was obtained by centrifuging PRP at 1000× g for 5 min.
# (Platelet count was determined with the aid of a hemacytometer.) Peptides and stimulants were added to these suspensions in 1% dilutions. The PRP and gel-filtered platelets were used within three hours from the time of blood collection.
# [2] = target: GP IIb/IIIa (Homo sapiens, UniProt P05106+P08514); assay: Inhibition of binding of various ligands to GP IIb/IIIa; details: fibrinogen vs fibronectin and vitronectin
# GP IIb/IIIa, sequence (P08514 32-887 limits assumed): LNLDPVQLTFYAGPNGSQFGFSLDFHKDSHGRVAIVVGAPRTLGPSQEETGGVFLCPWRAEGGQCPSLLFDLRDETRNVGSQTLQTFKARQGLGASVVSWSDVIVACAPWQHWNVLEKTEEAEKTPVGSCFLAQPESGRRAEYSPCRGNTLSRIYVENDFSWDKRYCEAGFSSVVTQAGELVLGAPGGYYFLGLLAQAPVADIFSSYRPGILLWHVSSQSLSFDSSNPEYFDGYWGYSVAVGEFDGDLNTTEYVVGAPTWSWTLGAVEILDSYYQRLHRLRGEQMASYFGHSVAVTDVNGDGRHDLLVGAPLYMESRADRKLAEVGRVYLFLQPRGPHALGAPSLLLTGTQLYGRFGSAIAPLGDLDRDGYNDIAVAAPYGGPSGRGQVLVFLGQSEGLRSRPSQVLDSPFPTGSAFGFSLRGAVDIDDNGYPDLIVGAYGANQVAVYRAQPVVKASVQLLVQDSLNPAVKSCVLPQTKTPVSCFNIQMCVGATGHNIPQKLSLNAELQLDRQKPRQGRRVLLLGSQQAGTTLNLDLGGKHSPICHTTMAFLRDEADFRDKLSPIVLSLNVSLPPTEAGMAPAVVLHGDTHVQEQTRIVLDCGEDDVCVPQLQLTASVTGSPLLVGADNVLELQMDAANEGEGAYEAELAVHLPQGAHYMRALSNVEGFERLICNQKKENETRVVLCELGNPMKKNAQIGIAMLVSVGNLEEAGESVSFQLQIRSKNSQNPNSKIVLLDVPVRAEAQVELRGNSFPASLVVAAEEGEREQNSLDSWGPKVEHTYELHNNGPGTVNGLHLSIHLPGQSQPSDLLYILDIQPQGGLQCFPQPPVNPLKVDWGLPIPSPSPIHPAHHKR
# GP IIb/IIIa, sequence (P08514 891-1039 partner limits assumed): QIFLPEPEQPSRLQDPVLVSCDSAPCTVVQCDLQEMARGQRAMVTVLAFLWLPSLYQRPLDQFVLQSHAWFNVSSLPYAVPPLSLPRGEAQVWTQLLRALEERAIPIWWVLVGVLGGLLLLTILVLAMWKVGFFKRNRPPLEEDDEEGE
# GP IIb/IIIa, sequence (P05106 27-788): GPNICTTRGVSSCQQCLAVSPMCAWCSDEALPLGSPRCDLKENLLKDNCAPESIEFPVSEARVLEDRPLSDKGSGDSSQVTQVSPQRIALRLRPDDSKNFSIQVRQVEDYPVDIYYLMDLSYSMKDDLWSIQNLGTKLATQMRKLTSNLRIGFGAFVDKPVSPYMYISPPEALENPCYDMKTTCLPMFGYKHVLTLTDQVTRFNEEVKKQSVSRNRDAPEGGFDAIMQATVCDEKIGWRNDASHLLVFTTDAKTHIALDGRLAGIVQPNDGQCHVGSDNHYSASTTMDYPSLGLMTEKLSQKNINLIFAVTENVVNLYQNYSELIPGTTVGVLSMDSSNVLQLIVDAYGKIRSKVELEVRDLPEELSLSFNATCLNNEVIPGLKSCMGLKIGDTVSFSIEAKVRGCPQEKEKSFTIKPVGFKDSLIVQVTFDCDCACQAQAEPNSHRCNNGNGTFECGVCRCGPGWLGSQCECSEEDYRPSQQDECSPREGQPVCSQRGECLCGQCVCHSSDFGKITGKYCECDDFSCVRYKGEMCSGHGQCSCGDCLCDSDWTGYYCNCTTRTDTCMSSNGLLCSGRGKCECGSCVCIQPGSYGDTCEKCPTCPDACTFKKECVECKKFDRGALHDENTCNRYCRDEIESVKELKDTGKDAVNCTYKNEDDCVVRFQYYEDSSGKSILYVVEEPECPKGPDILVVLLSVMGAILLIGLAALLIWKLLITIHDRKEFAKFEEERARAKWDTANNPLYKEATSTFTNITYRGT
# [3] = target: T1, vitronectin receptor (Vn-R) (Homo sapiens, UniProt P05106+P06756); assay: VnR binding, ELISA or liposome attachment assay (Table I)
# T1 construct: from tissue; host or cells: human placenta
# T1 sequence (P06756 31-889 limits assumed): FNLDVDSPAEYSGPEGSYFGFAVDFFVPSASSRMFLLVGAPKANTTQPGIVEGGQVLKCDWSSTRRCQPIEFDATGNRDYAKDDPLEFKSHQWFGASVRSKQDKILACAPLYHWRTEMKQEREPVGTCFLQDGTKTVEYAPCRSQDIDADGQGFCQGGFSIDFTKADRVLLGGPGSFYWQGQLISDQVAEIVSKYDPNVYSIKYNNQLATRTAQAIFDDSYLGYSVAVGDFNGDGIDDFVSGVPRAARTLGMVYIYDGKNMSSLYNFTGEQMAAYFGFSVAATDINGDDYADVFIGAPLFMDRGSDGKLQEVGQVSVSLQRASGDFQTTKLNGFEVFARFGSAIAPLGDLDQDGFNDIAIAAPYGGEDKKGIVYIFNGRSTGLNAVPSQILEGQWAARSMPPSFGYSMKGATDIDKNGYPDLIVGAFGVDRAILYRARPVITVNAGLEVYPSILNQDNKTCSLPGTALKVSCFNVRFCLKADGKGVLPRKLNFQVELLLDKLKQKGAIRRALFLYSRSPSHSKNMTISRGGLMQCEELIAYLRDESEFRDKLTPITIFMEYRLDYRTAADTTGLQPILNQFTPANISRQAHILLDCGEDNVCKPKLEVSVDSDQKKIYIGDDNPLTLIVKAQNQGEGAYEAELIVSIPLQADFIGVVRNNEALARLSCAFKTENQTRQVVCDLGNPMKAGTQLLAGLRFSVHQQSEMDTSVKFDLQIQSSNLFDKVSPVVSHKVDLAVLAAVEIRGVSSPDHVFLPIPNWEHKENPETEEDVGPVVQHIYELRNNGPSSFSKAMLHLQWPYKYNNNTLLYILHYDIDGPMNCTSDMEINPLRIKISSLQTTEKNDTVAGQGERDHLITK
# T1 sequence (P06756 891-1048 partner limits assumed): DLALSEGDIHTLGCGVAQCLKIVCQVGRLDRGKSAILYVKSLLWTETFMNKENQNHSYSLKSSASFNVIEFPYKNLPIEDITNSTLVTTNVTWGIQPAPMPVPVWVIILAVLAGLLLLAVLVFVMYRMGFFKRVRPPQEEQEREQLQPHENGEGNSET
# T1 sequence (P05106 27-788): as the sequence (P05106 27-788) above
# Experimental: Except where stated, all procedures were carried out at 4° C. The peptide column was washed with three volumes of Tris-buffered saline (TBS) containing 1 mM Ca^2+ and Ca^2+ and 25 mM OG and then with TBS containing 1 mM 25 mM octyl thioglucoside (OTG) at room temperature. […] Finally, Ca^2+ and Mg^+2 were added to eluted fractions to achieve final concentrations of 1 mM for both ions.
# Maxisorp microtiter plates were coated with 2 μg/ml human vitronectin dissolved in PBS (50 ml/well) and stored overnight at 4° C. The plates were washed two times with PBS-0.05% Tween-20 (wash buffer) and blocked by incubating with about 150 μl/well of assay buffer (1%, BSA (RIA grade or better) in 50 mM Tris-HCl, 100 mM NaCl, 1 mM MgCl2, CaCl2, MnCl2 pH 7.4) for 60 minutes. Dilutions of standards were prepared and putative inhibitors (Table 2) were dissolved in assay buffer. The blocked plates were emptied and 20 μl/well of inhibitor or standard solution was added to each well. Twenty-five μl of a 30 μg/ml solution of purified αV β3 in assay buffer was pipetted into the coated plate. The final concentration of receptor in the assay well was about 15 μg/ml. The plate was incubated on a shaker for 60 minutes. Meanwhile, for each microtite plate, 6 ml buffer solution containing 1.5 μg/ml of mouse monoclonal antibody specific for β3 is prepared. To this solution was added the secondary antibody which is anti-mouse-Fc-HRP antibody conjugate. For example, for one plate, 6 ml of a 1.5 μg/ml mouse Mab solution was prepared to which was added 1 μl of anti-mouse-Fc-HRP antibody stock, (this represents a 1:6000 dilution of the antibody--HRP conjugate). This mixture was allowed to incubate during the receptor-inhibitor incubation. The assay plates were washed 4 times with PBS-Tween and 50 μl/well of the antibody mixture was then pipetted into the plate for a 60 minute incubation. The plate was washed 4 times and the color reaction was developed with 50 μl/well of 0.67 mg/ml o-phenyldiamine in PBS containing 0.012% H2 O2. Alternatively, 16 mM citric acid, 50 mM Na2 PO4 at pH 5.0 can be used as a substrate buffer. The reaction is stopped with 50 μl/well 1 M H2 SO4. The plates were read at 492-405 nm and the data analyzed by four-parameters fit.
# Briefly, 1:4 mixture of labelled and unlabelled phosphatidylcholine (PC) liposomes was dissolved under nitrogen and diluted with an equal volume of purified receptor (purified as described in Example II) to achieve a fixed predetermined receptor-liposome concentration ratio. This mixture was then dialyzed overnight at 4° C. in phosphate buffered saline (PBS) containing 1 mM Ca^2+. An aliquot of the dialyzed sample was counted to assess radioactive content; the receptor-liposome mixture was then diluted to obtain a set radioactivity per unit volume. […]
# [4] = test system: platelets; assay: Ex vivo platelet aggregation in canine coronary thrombosis model; details: dog; for reduction of ex vivo aggregation relative to control levels: 3 mg/kg; for ex vivo platelet aggregation by all three stimuli: 10 mg/kg
# Experimental: For all ex vivo studies (see FIG. 3), control aggregation values were standardized to the percentages of light transmission observed in PRP and PPP samples (0% and 100%, respectively).
# Animals were randomly assigned to two treatment groups: vehicle control (i.e., normal saline) or RGD peptides at various concentrations. Peptides were administered intra-atrially in both bolus and continuous injections. Each bolus injection consisted of 0.5 to 10 mg/kg and was administered 15 minutes before application of the current. A continuous infusion of the same peptide was then started immediately after completion of this initial injection. Animals received a 25 μg/kg/min to 200 μg/kg/min infusion. The anti-thrombotic effects of the peptides were monitored until 30 minutes after the occurrence of a persistent, occlusive thrombus or five hours after the initiation of electrical stimulation (whichever resulted first). If an occlusive thrombus had not developed within four hours after the initiation of current, the peptide infusion was stopped.
# Platelet counts and ex vivo aggregation studies were performed one hour before and 1, 3, and 5 hours after application of anodal direct current.
# Platelet aggregation was also determined ex vivo at one, three, and five hours after current application. For these studies, arachidonic acid, or collagen was again used to stimulate the platelets.
# [5] = test system: Gore-tex vascular graft thrombosis; assay: Platelet and fibrinogen uptake by Gore-Tex grafts in baboon ex vivo shunt; details: baboon animal 2, 10 mg/kg bolus IV + 10 mg/kg/hr infusion for two hours
# Experimental: Adult male baboons (weighing 16 to 25 kg) were used in these studies. These were sedated with ketamine hydrochloride (200 to 250 mg intramuscular injection) and maintained under anesthesia with sodium pentobarbital (50 to 75 mg administered intravenously as necessary).
# Twenty-four hours before the ex vivo shunt was established, platelets were isolated from 500 ml of blood from the test animal and labelled with ca. 500 microcuries of indium-111 oxine (Medi+Physics, Emeryville, Calif.), which irreversibly and specifically binds to platelets with an efficiency of 50%. Immediately after labelling, these platelets were then injected back into the animal and allowed to circulate for 24 hours. Immediately before the start of the study, fibrinogen that had been isolated from the animal and labelled with iodine-131 (DuPont Nuclear, Boston, Mass.) was also injected back into the animal. Also at this time, baseline determinations of the clotting and template bleeding times were made, and blood samples were drawn for hematology studies.
# To establish the ex vivo shunt, the femoral artery and vein were percutaneously cannulated with introducer catheters (KMA Inc., Mansfield, Mass.). […]
# Platelet deposition onto the grafts was monitored by dynamic scanning with a gamma camera (Sigma 400, Ohio Nuclear, Inc., Sohon, Ohio), which detects the gamma radiation emitted by the ^111 indium-labelled platelets. […]
# [6] = test system: platelets; assay: Baboon ex vivo platelet aggregation (ADP); assay type: in vivo; details: baboon animal 2, PRP, ADP 10 μm
# Experimental: At one- and two-hour time points, template bleeding times were measured, and blood samples were drawn to assess the hematology aggregation studies. Platelet aggregation studies were performed as described in Example V using ADP as the stimulus.
# In addition, platelet aggregation studies were conducted on PRP derived from the second animal. Whole blood was drawn at three time points (0, 1 and 2 hours) of both control and experimental shunts.
# [7] = test system: coronary thrombosis; assay: Electrically induced canine coronary thrombosis, time to full occlusion; assay type: in vivo; details: dog
# Experimental: Male mongrel dogs weighing 14 to 20 kg were selected based on proper aggregation of their platelets in response to arachidonic acid, collagen, and adenosine disphosphate (ADP) and based on similar weights and hemodynamic properties.
# Before surgery, the animals were anesthetized with sodium pentobarbital (30 mg/kg, i.v.) and then intubated and ventilated on room air with positive pressure using a respirator (Harvard Apparatus, S. Natick, Mass.) at a volume of 30 ml/kg and a frequency of 12 breaths/min. Surgery, performed under aseptic conditions, was begun with the placement of cannulae into the left carotid artery and jugular vein for monitoring arterial blood pressure (Statham P23 pressure transducer, Gould, Inc., Cardiovascular Products, Oxnard, Calif.) and administering intravenous fluids.
# The heart was exposed via a left thoracotomy through the 5th intercostal space. […]
# Animals were randomly assigned to two treatment groups: vehicle control (i.e., normal saline) or RGD peptides at various concentrations. […] The anti-thrombotic effects of the peptides were monitored until 30 minutes after the occurrence of a persistent, occlusive thrombus or five hours after the initiation of electrical stimulation (whichever resulted first). […]
# Coronary thrombosis was quantified as the time to full occlusion. […]
# [8] = test system: platelets; assay: Thrombin-stimulated platelet aggregation (Table I); assay type: cell-based, human; details: thrombin 2 U/ml, gel-filtered platelets
# Experimental: as §1, with “Platelet aggregation assays were performed following the methods of this Example or those of Example IX.G. Platelet” for “Platelet”
# All aggregation studies were performed at 37° C. with a constantly stirred suspension of 3×10^8 platelets/ml. (Platelet count was determined with the aid of a hemacytometer.) Peptides and stimulants were added to these suspensions in 1% dilutions. The PRP and gel-filtered platelets were used within three hours from the time of blood collection.
# Peptide anti-aggregation potencies were determined from dose-responsive curves for the inhibition of the maximum aggregation responses stimulated by physiologic doses of ADP (10 μm) and thrombin (2 U/ml).
# [9] = test system: platelets; assay type: cell-based, human; details: ADP 10 μm, platelet-rich plasma; read-out: ADP-Stimulated Aggregation (IC50)
# [10] = Rabbit peripheral blood flow (PBF), laser dopler flow probe; assay type: in vivo; details: time 10 min, bolus dose printed with drug
# Experimental: In an alternative series of experiments, (Table 2) PBF was measured quantitatively with a laser dopler flow probe (Perimed). The probe was positioned securely over the vascular bed of one ear and flow monitored continuously. Each inhibitor was infused and CBT measured in the opposing ear. No arterial catheter was placed for blood sampling, consequently XPA was measured in these animals.
substance,measurement,setting,value
(Mpr)RGD(O-Me-Y)RC-NH2 [16A],reactivity relative to 8X in platelet aggregation,[1],about two-fold
Ac--CNPRGD(Y--OMe)RCNH2 [8X],differential inhibition of ligand binding to GP IIb/IIIa,[2],inhibits the binding of fibrinogen to GP IIb/IIIa more than it inhibits the binding of fibronectin and vitronectin to the same integrin
FRGDSPDG,pIC50,[3],7.40
G(Pen)GHRGDLRCA [2G],ex vivo ADP-stimulated aggregation,"[4]; 10 mg/kg, 1, 3 and 5 h",substantially inhibited
same,reduction in labelled fibrinogen uptake by graft,[5],78%
same,reduction in labelled platelet uptake by graft,[5],84%
same,ex vivo platelet aggregation response,[6],completely unresponsive
same,"coronary thrombosis, time to full occlusion",[7]; 10 mg/kg,did not significantly influence
GNPRGD(O-Me-Y)RD-NH2 [20Q],potency relative to 17J,[1]; times more potent than 17J,about three
same,potency relative to 18J,[1]; times more potent than 18J,about 20
LRGDSPDG,pIC50,[3],6.70
R2 (Pen)GRGDTPCA,pIC50,[8],5.57
same,pIC50,[9],5.09
R(Pen GRGDWPCR [4R],pIC50,[8],6.28
same,reduction of ex vivo aggregation relative to control levels,[4]; one hour,20-58%
same,reduction of ex vivo aggregation relative to control levels,[4]; three and five hours,75-100% and 72-100%
same,ex vivo platelet aggregation by all three stimuli,[4],unresponsive to all modes of stimulation at all time points
same,"coronary thrombosis, time to full occlusion",[7]; 3 mg/kg,ineffective
R(Pen)GHRGDWRCR [4Q],PBF,[10],9 units
same,ex vivo platelet activation by collagen,[4]; 5 mg/kg,near-maximal inhibition
same,ex vivo platelet response to ADP and AA,"[4]; 5 mg/kg, all three time points",completely unresponsive
same,ex vivo platelet aggregation by all three stimuli,[4],prevented platelet aggregation by all three stimuli
RGD(O-Me-Y)RE-NH2 [21I],reactivity relative to 8X in platelet aggregation,[1],about three-fold
VRGDSPDG,pIC50,[3],6.62
YRGDSPDG,pIC50,[3],7.10
